# Reference: patent publication US20030013643A1, “Prevention and treatment of streptococcal and staphylococcal infection” (priority 2000, published 2003)
# Columns and labels:
# [1] = tested on: Group A Streptococcus (GAS, strain 950771); assay: Bacterial binding to human keratinocyte monolayers, GAS; assay type: cell-based; details: 1 mg/ml pre-incubation; multiplicity of infection 10; 1 hour
# Description: (§1) Keratinocyte monolayers were prepared as descibed above in Methods section and pre-incubated with 1 mg/ml alginate (AL, solid bars) or 1 mg/ml hyaluronic acid (HA, hatched bars) prior to surface inoculation (as described above in Methods) with either Group A Streptococcus (GAS, strain 950771), Group B Streptococcus (GBS, strain 515), Streptococcus pneumoniae (S. pneumo, type 6), or Staphylococcus aureus (S. aureus, type 8) at a multiplicity of infection of 10 bacteria per keratinocyte for 1 hour.
# [2] = tested on: Group B Streptococcus (GBS, strain 515); assay: Bacterial binding to human keratinocyte monolayers, GBS; assay type: cell-based; details: 1 mg/ml pre-incubation; multiplicity of infection 10; 1 hour
# Description: as §1
# GAS = GAS attachment to murine keratinocyte cell line PAM2.12 with exogenous hyaluronic acid; assay type: cell-based, Streptococcus pyogenes
# Description: For bacterial adherence assays, keratinocytes were seeded at 10^5 cells per well in collagen-coated tissue culture wells (Nalge Nunc International, Naperville, Ill.), incubated for 3 days at 34° C. in 8% CO2, washed, and overlaid with medium containing 10^6 CFU of GAS per well. After incubation for 1 hour at 34° C. in 8% CO2 the keratinocyte monolayers were washed twice to remove nonadherent bacteria, then the number of cell-associated bacteria was determined by quantitative culture after releasing the keratinocytes with try spin and lysing them in sterile water, experiments testing the effects of exogenous hyaluronic acid on GAS adherence were performed using the mouse keratinocyte cell line, PAM 2.12 (Song, I. S. 2000, Exp. Dermatol. 9:42-52). Cells were seeded in collagen-coated tissue culture wells at 10^5 cells per well, cultured for 3 days at 37° C. in 5% CO2, then inoculated with 10^6 CFU of GAS per well in medium containing exogenous hyaluronic acid (from rooster comb, Sigma Chemicals, St. Louis, Mo.), no inhibitor, or a control polysaccharide, alginic acid, a high-molecular-weight polymer of mannuronic acid and guluronic acid (Protonal Durvillea Alginate, Pronova. Biopolymer, Inc., Portsmouth, N.H.). Cells were incubated for 45 minutes at 37° C. in 5% CO2, then processed for enumeration of adherent bacteria as described above. In experiments to test whether exogenous hyaluronic acid could promote dissociation of GAS attached to keratinocytes, GAS were allowed to attach to keratinocytes in the absence of inhibitor; after 45 minutes, the medium was removed and replaced with fresh medium containing hyaluronic acid, no inhibitor, or alginic acid. After 45 minutes of incubation, the number of adherent bacteria was enumerated as described above.
# To investigate the specificity of the interaction between the GAS capsule and CD44 on epithelial cells, the ability of exogenous hyaluronic acid to compete with GAS for binding to murine keratinocytes was examined. Addition of exogenous hyaluronic acid to concentration 1 mg/ml[…], inhibited GAS attachment to the murine keratinocyte cell line PAM2.12 by >95% (P<0.03, FIG. 5). A concentration of 1 /ml alginic acid, another high molecular weight acidic polysaccharide, had no effect, supporting the hypothesis that adherence depends on a specific interaction between the GAS hyaluronic acid capsule and CD44 .
# In addition to the 1 mg/ml concentration of hyaluronic acid, additional trials were performed as indicated above, with a range of concentrations of hyaluronic acid added to the cells. The concentrations tested included 4 mg/ml, 2 mg/ml, 1 mg/ml, 0.75 mg/ml, 0.5 mg/ml, 0.25 mg/ml and 0.1 mg/ml. The hyaluronic acid concentrations from 4 mg/ml to 0.25 mg/ml blocked GAS binding by greater than 70%. Hyaluronic acid concentrations from 4 mg/ml to 0.5 mg/ml blocked GAS binding by greater than 80% (FIG. 6).
# [3] = tested on: Staphylococcus aureus (S. aureus, type 8); assay: Bacterial binding to human keratinocyte monolayers, S. aureus; assay type: cell-based; details: 1 mg/ml pre-incubation; multiplicity of infection 10; 1 hour
# Description: as §1
# GAS 950771 or GAS 282 = assay: GAS binding to and displacement from human keratinocyte monolayers; assay type: cell-based, Streptococcus pyogenes; details: 1 mg/ml
substance,measurement,setting,value
hyaluronic acid,inhibition of binding,[1],more than 80%
same,inhibition of binding,[2],more than 80%
same,reduction in bacterial attachment,"GAS; added up to 45 minutes after adding GAS to the keratinocytes, P<0.03",> 90%
same,reduction of GAS attachment,"GAS; addition delayed for 2 hours, P<0.03",70-80%
same,blocking of GAS binding,GAS; concentrations from 4 mg/ml to 0.25 mg/ml,greater than 70%
same,blocking of GAS binding,GAS; concentrations from 4 mg/ml to 0.5 mg/ml,greater than 80%
same,inhibition of GAS attachment to PAM2.12,"GAS; hyaluronic acid 1 mg/ml added with GAS, P<0.03",> 95%
same,inhibition of binding,[3],more than 80%
same,inhibition of GAS binding to human cells,"GAS 950771 or GAS 282; GAS 950771 or GAS 282, not strain specific",block GAS binding to human cells
same,displacement of bound bacteria,GAS 950771 or GAS 282; after 45 minutes,displaced bound GAS
